System: NIH/Swiss mice
Test: Oral glucose tolerance test (OGTT), glucose lowering
Details: 30 nM/kg

Compound	OGTT % maximal decrease [%]
Lys^16 (N-ε-(Aun-Aun-(γ-L-Glu-2-(S)-cyano pyrrolidyl))) GIP(1-30)-exendin(31-39)	−3
CC[C@H](C)[C@H](NC(=O)[C@H](CO)NC(=O)[C@H](Cc1ccc(O)cc1)NC(=O)[C@H](CC(=O)O)NC(=O)[C@H](CO)NC(=O)[C@@H](NC(=O)[C@H](Cc1ccccc1)NC(=O)[C@@H](NC(=O)CNC(=O)[C@H](CCC(=O)O)NC(=O)[C@@H](C)NC(=O)[C@@H](N)Cc1ccc(O)cc1)[C@@H](C)O)[C@@H](C)CC)C(=O)N[C@@H](C)C(=O)N[C@@H](CCSC)C(=O)N[C@@H](CC(=O)O)C(=O)N[C@@H](CCCCN)C(=O)N[C@H](C(=O)N[C@@H](Cc1c[nH]cn1)C(=O)N[C@@H](CCC(N)=O)C(=O)N[C@@H](CCC(N)=O)C(=O)N[C@@H](CC(=O)O)C(=O)N[C@@H](Cc1ccccc1)C(=O)N[C@H](C(=O)N[C@@H](CC(N)=O)C(=O)N[C@@H](Cc1c[nH]c2ccccc12)C(=O)N[C@@H](CC(C)C)C(=O)N[C@@H](CC(C)C)C(=O)N[C@@H](C)C(=O)N[C@@H](CCC(N)=O)C(=O)N[C@@H](CCCCN)C(=O)N1CCC[C@H]1C(=O)N[C@@H](CO)C(=O)N[C@@H](CO)C(=O)NCC(=O)N[C@@H](C)C(=O)N1CCC[C@H]1C(=O)N1CCC[C@H]1C(=O)N1CCC[C@H]1C(=O)N[C@@H](CO)C(=O)NCCOCCOCC(=O)NCCCC[C@H](N)C(=O)N1CCC[C@H]1C#N)C(C)C)[C@@H](C)CC [[D-Ala]GIP(1-30)-exendin-4(31-39)-Ado-Lys-N-ε-(2-(S)-cyano pyrrolidyl)]	−20
CC[C@H](C)[C@H](NC(=O)[C@H](CO)NC(=O)[C@H](Cc1ccc(O)cc1)NC(=O)[C@H](CC(=O)O)NC(=O)[C@H](CO)NC(=O)[C@@H](NC(=O)[C@H](Cc1ccccc1)NC(=O)[C@@H](NC(=O)CNC(=O)[C@H](CCC(=O)O)NC(=O)[C@H](C)NC(=O)[C@@H](N)Cc1ccc(O)cc1)[C@@H](C)O)[C@@H](C)CC)C(=O)N[C@@H](C)C(=O)N[C@@H](CCSC)C(=O)N[C@@H](CC(=O)O)C(=O)N[C@@H](CCCCN)C(=O)N[C@H](C(=O)N[C@@H](Cc1c[nH]cn1)C(=O)N[C@@H](CCC(N)=O)C(=O)N[C@@H](CCC(N)=O)C(=O)N[C@@H](CC(=O)O)C(=O)N[C@@H](Cc1ccccc1)C(=O)N[C@H](C(=O)N[C@@H](CC(N)=O)C(=O)N[C@@H](Cc1c[nH]c2ccccc12)C(=O)N[C@@H](CC(C)C)C(=O)N[C@@H](CC(C)C)C(=O)N[C@@H](C)C(=O)N[C@@H](CCC(N)=O)C(=O)N[C@@H](CCCCN)C(=O)N1CCC[C@H]1C(=O)N[C@@H](CO)C(=O)N[C@@H](CO)C(=O)NCC(=O)N[C@@H](C)C(=O)N1CCC[C@H]1C(=O)N1CCC[C@H]1C(=O)N1CCC[C@H]1C(=O)N[C@@H](CO)C(=O)NCCOCCOCC(=O)NCCOCCOCC(=O)NCCCC[C@H](N)C(=O)N1CCC[C@H]1C#N)C(C)C)[C@@H](C)CC [GIP(1-30)-exendin-4(31-39)-Ado-Ado-Lys-N-ε-(2-(S)-cyano pyrrolidyl)]	−22
